28 compounds from patent US20260184693A1, “INHIBITORS OF SOLUTE CARRIER FAMILY 6A MEMBER 19 (SLC6A19) AND METHODS OF USE THEREOF” (Maze Therapeutics, Inc., priority 2022, published 2026) can be followed below.

pIC50: −log10 of the molar value.

The experiment deals with T1, human SLC6A19 (Homo sapiens, UniProt Q695T7).
T1 construct: expressed in transfected cells
T1 sequence (Q695T7 1-634): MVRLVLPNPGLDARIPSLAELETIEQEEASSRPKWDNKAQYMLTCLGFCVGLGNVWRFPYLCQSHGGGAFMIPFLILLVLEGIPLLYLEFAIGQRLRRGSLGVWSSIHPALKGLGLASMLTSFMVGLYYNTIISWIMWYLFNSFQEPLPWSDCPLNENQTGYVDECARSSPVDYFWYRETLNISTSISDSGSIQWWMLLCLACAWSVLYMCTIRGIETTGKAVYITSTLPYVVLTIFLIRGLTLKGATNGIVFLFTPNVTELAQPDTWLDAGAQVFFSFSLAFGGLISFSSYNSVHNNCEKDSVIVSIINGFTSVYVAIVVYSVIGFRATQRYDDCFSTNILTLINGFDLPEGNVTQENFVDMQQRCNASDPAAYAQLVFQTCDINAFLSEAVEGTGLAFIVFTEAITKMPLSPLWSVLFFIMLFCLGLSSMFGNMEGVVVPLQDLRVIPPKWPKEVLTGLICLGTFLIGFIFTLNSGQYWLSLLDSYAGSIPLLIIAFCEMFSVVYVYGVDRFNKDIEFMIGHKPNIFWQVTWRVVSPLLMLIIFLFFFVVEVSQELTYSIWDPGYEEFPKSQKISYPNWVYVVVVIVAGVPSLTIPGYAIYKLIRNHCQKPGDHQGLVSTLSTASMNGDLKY
T1 sequence (Q9HBJ8 15-222 partner): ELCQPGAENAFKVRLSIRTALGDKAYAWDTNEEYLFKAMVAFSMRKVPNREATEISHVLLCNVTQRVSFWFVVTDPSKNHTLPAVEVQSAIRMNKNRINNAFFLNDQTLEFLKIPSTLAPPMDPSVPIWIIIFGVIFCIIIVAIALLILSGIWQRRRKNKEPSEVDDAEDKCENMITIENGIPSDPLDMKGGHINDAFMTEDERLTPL
The experiment is described as follows: Example B2: 13C6,15N-isoleucine uptake, RapidFire mass spectrometry, in CHO cells with doxycycline-inducible expression of human SLC6A19 and TMEM27. The format is cell-based. Conditions: read-out: SLC6A19_RapidFire Uptake Assay IC50. The gist of the method: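 CHO cells were induced with doxycycline to express human SLC6A19 with TMEM27, then pre-incubated 20 min at 37 °C with compounds (2-fold, 10-point, duplicate). Uptake of 13C6,15N-isoleucine (2 mM solution added) over a further 20 min was measured by RapidFire mass spectrometry, using 13C-leucine as internal standard.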
In the case of `CC(=O)NCC(=O)N1CCC[C@@H](N(C)C(=O)NCc2cc3cc(Cl)ccc3[nH]2)C1` [Compound 53, (R)-N-(2-(3-(3-((5-chloro-1H-indol-2-yl)methyl)-1-methylureido)piperidin-1-yl)-2-oxoethyl)acetamide], the pIC50 (as a rule, the negative decadic logarithm of the IC50, by convention in mol/L) was 5.79.

Regarding `CN(C(=O)NCc1cc2cc(Cl)ccc2[nH]1)[C@@H]1CCCN(C(=O)c2ncccn2)C1` [Compound 22, (R)-3-((5-chloro-1H-indol-2-yl)methyl)-1-methyl-1-(1-(pyrimidine-2-carbonyl)piperidin-3-yl)urea], the pIC50 was 5.36.

On to `CN(C(=O)NCc1cc2cc(Cl)ccc2[nH]1)[C@@H]1CCCN(C(=O)C(C)(O)C(F)(F)F)C1` (stereo partly drawn) [Compound 50, 3-((5-chloro-1H-indol-2-yl)methyl)-1-methyl-1-((3R)-1-(3,3,3-trifluoro-2-hydroxy-2-methylpropanoyl)piperidin-3-yl)urea], for which the pIC50 was 5.32.

Take `CN(C(=O)NCc1cc2cc(Cl)ccc2[nH]1)[C@@H]1CCCN(C(=O)C2CN(S(C)(=O)=O)C2)C1` [Compound 103, (R)-3-((5-chloro-1H-indol-2-yl)methyl)-1-methyl-1-(1-(1-(methylsulfonyl)azetidine-3-carbonyl)piperidin-3-yl)urea]: the pIC50 was 5.65.

For `CN(C(=O)NCc1cc2cc(Cl)ccc2[nH]1)[C@@H]1CCCN(C(=O)C2CCC(=O)C2)C1` (stereo partly drawn) [Compound 75, 3-((5-chloro-1H-indol-2-yl)methyl)-1-methyl-1-((3R)-1-(3-oxocyclopentane-1-carbonyl)piperidin-3-yl)urea], the pIC50 is 5.76.

Take `COc1ccc(CC(=O)N2CCC[C@@H](N(C)C(=O)NCc3cc4cc(Cl)ccc4[nH]3)C2)cc1F` [Compound 107, (R)-3-((5-chloro-1H-indol-2-yl)methyl)-1-(1-(2-(3-fluoro-4-methoxyphenyl)acetyl)piperidin-3-yl)-1-methylurea]: the pIC50 is 5.90.

For `CCN(C(=O)NCc1cc2cc(Cl)c(OC)cc2[nH]1)[C@@H]1CCCN(C(C)=O)C1` [Compound 167, (R)-1-(1-acetylpiperidin-3-yl)-3-((5-chloro-6-methoxy-1H-indol-2-yl)methyl)-1-ethylurea], the pIC50 was 6.99.

Consider `CN(C(=O)NCc1cc2cc(Cl)ccc2[nH]1)[C@@H]1CCCN(C(=O)C2(F)CCC2)C1` [Compound 127, (R)-3-((5-chloro-1H-indol-2-yl)methyl)-1-(1-(1-fluorocyclobutane-1-carbonyl)piperidin-3-yl)-1-methylurea], for which the pIC50 was 6.17.

For the compound `CN(C(=O)NCc1cc2cc(Cl)ccc2[nH]1)[C@@H]1CCCN(C(=O)C2(O)CCCC2)C1` [Compound 97, (R)-3-((5-chloro-1H-indol-2-yl)methyl)-1-(1-(1-hydroxycyclopentane-1-carbonyl)piperidin-3-yl)-1-methylurea], the pIC50 was 5.87.

`CN(C(=O)NCc1cc2cc(Cl)ccc2[nH]1)[C@@H]1CCCN(C(=O)C2(C)COC2)C1` [Compound 126, (R)-3-((5-chloro-1H-indol-2-yl)methyl)-1-methyl-1-(1-(3-methyloxetane-3-carbonyl)piperidin-3-yl)urea]: the pIC50 is 5.84.

As for `COC(=O)N1CCC[C@@H](N(C)C(=O)NCc2cc3cc(Cl)ccc3[nH]2)C1` [Compound 158, methyl (R)-3-(3-((5-chloro-1H-indol-2-yl)methyl)-1-methylureido)piperidine-1-carboxylate], the pIC50 was 6.95.

Consider `Cc1cnc2ncc(C(=O)N3CCC[C@@H](N(C)C(=O)NCc4cc5cc(Cl)ccc5[nH]4)C3)n2c1` [Compound 102, (R)-3-((5-chloro-1H-indol-2-yl)methyl)-1-methyl-1-(1-(6-methylimidazo[1,2-a]pyrimidine-3-carbonyl)piperidin-3-yl)urea], for which the negative-log IC50 (pIC50) is 5.74.

`CN(C(=O)NCc1cc2cc(Cl)ccc2[nH]1)[C@@H]1CCCN(C(=O)CCNC(N)=O)C1` [Compound 73, (R)-3-((5-chloro-1H-indol-2-yl)methyl)-1-methyl-1-(1-(3-ureidopropanoyl)piperidin-3-yl)urea]: the pIC50 was 6.05.

As for `CCC(O)C(=O)N1CCC[C@@H](N(C)C(=O)NCc2cc3cc(Cl)ccc3[nH]2)C1` (stereo partly drawn) [Compound 40, 3-((5-chloro-1H-indol-2-yl)methyl)-1-((3R)-1-(2-hydroxybutanoyl)piperidin-3-yl)-1-methylurea], the pIC50 was 5.28.

For the compound `CC(=O)N1CCC[C@@H](N(C)C(=O)NCc2cc3cc(F)c(F)cc3[nH]2)C1` [Compound 156, (R)-1-(1-acetylpiperidin-3-yl)-3-((5,6-difluoro-1H-indol-2-yl)methyl)-1-methylurea], the pIC50 is 6.55.

For the compound `CN(C(=O)NCc1cc2cc(Cl)ccc2[nH]1)[C@@H]1CCCN(C(=O)C2CCCO2)C1` (stereo partly drawn) [Compound 61, 3-((5-chloro-1H-indol-2-yl)methyl)-1-methyl-1-((3R)-1-(tetrahydrofuran-2-carbonyl)piperidin-3-yl)urea], the pIC50 was 6.27.

As to `CN(C(=O)NCc1cc2cc(Cl)ccc2[nH]1)[C@@H]1CCCN(C(=O)c2cccn3cnnc23)C1` [Compound 74, (R)-1-(1-([1,2,4]triazolo[4,3-a]pyridine-8-carbonyl)piperidin-3-yl)-3-((5-chloro-1H-indol-2-yl)methyl)-1-methylurea], the pIC50 is 5.60.

For the compound `CN(C(=O)NCc1cc2cc(Cl)ccc2[nH]1)[C@@H]1CCCN(C(=O)Cc2cnccn2)C1` [Compound 62, (R)-3-((5-chloro-1H-indol-2-yl)methyl)-1-methyl-1-(1-(2-(pyrazin-2-yl)acetyl)piperidin-3-yl)urea], the pIC50 was 5.87.

Consider `CC(C(=O)N1CCC[C@@H](N(C)C(=O)NCc2cc3cc(Cl)ccc3[nH]2)C1)n1cncn1` (stereo partly drawn) [Compound 70, 1-((3R)-1-(2-(1H-1,2,4-triazol-1-yl)propanoyl)piperidin-3-yl)-3-((5-chloro-1H-indol-2-yl)methyl)-1-methylurea], for which the pIC50 is 5.51.

On to `CCN(C(=O)NCc1cc2cc(F)ccc2[nH]1)[C@@H]1CCCN(C(C)=O)C1` [Compound 166, (R)-1-(1-acetylpiperidin-3-yl)-1-ethyl-3-((5-fluoro-1H-indol-2-yl)methyl)urea], for which the pIC50 was 6.77.

Turning to `CN(C(=O)NCc1cc2cc(Cl)ccc2[nH]1)[C@@H]1CCCN(C(=O)c2ncc[nH]c2=O)C1` [Compound 37, (R)-3-((5-chloro-1H-indol-2-yl)methyl)-1-methyl-1-(1-(3-oxo-3,4-dihydropyrazine-2-carbonyl)piperidin-3-yl)urea], the pIC50 was 4.71.

`CN(C(=O)NCc1cc2cc(Cl)ccc2[nH]1)[C@@H]1CCCN(C(=O)CC2CCCCO2)C1` (stereo partly drawn) [Compound 106, 3-((5-chloro-1H-indol-2-yl)methyl)-1-methyl-1-((3R)-1-(2-(tetrahydro-2H-pyran-2-yl)acetyl)piperidin-3-yl)urea]: the pIC50 was 5.75.

For the compound `Cc1cc(C(=O)N2CCC[C@@H](N(C)C(=O)NCc3cc4cc(Cl)ccc4[nH]3)C2)n(C)n1` [Compound 77, (R)-3-((5-chloro-1H-indol-2-yl)methyl)-1-(1-(1,3-dimethyl-1H-pyrazole-5-carbonyl)piperidin-3-yl)-1-methylurea], the pIC50 is 5.18.

For `CN(C(=O)NCc1cc2cc(Cl)ccc2[nH]1)[C@@H]1CCCN(C(=O)c2ccc3ocnc3c2)C1` [Compound 72, (R)-1-(1-(benzo[d]oxazole-5-carbonyl)piperidin-3-yl)-3-((5-chloro-1H-indol-2-yl)methyl)-1-methylurea], the pIC50 is 5.86.

With `Cc1cc(COc2ccc3cc(CNC(=O)N(C)[C@@H]4CCCN(c5cccnn5)C4)[nH]c3c2)no1` [Compound 142, (R)-1-methyl-3-((6-((5-methylisoxazol-3-yl)methoxy)-1H-indol-2-yl)methyl)-1-(1-(pyridazin-3-yl)piperidin-3-yl)urea], the pIC50 is 5.88.

For `CN(C(=O)NCc1cc2cc(Cl)ccc2[nH]1)[C@@H]1CCCN(C(=O)c2ccno2)C1` [Compound 6, (R)-3-((5-chloro-1H-indol-2-yl)methyl)-1-(1-(isoxazole-5-carbonyl)piperidin-3-yl)-1-methylurea], the pIC50 was 6.70.

As for `Cc1ncoc1C(=O)N1CCC[C@@H](N(C)C(=O)NCc2cc3cc(Cl)ccc3[nH]2)C1` [Compound 27, (R)-3-((5-chloro-1H-indol-2-yl)methyl)-1-methyl-1-(1-(4-methyloxazole-5-carbonyl)piperidin-3-yl)urea], the pIC50 was 6.09.

`CC(=O)N1CCC[C@@H](N(C)C(=O)NCc2ccc3c(C)c[nH]c3c2)C1` [Compound 223, (R)-1-(1-acetylpiperidin-3-yl)-1-methyl-3-((3-methyl-1H-indol-6-yl)methyl)urea]: the pIC50 is 5.33.
